Measured values from paper PMC6355809, “Proteinaceous Nano container Encapsulate Polycyclic Aromatic Hydrocarbons” (Scientific Reports, 2019).

How the values were obtained:
RHCC-NT [1] = molecular target: T1, RHCC-NT (Staphylothermus marinus, UniProt Q54436); assay: Time-scale binding assay (uptake of PAH by RHCC-NT, fluorescence); conditions: for time to reach equilibrium: under the conditions of the pyrene time-scale study (10 °C), data not shown; for Py-value (ratio of fluorescence emission intensities of Band I/III): 2 µM pyrene, 70 µM RHCC
Description: To probe the uptake kinetics of low MW PAHs, we examined the fluorescence characteristics of pyrene in solvent in comparison to RHCC-NT bound pyrene (Fig. 4). As the bulkiest of the PAHs tested, it is expected that pyrene provides an upper bound on the equilibration time of these low MW PAHs. We took advantage of the major vibronic bands (I and III) of pyrene with defined peaks at ~373 and 384 nm[11],[12]. […] The ratio of the fluorescence emission intensities of Band I/III is defined as Py-value[13],[14] and can be employed to detect polarity in the vicinity of the probed microenvironment.
The time-scale assay was set-up by addition of pyrene to a 35-fold molar excess of RHCC in 20 mM sodium phosphate solution buffered at pH 7 and adjusted to 150 mM ionic strength. Both solutions were equilibrated to 10 °C prior to the assay. Data was collected on a Fluorolog-3 Horiba Jobin Yvon Spectrofluorometer (Edison, NJ). Excitation wavelength was set to 334 nm; emission was monitored at 384 nm; excitation and emission slits were set to 1 nm band pass resolution. Temperature was kept at 10 °C and controlled with a water bath throughout the experiment. Data was acquired every 1 minute for the first 25 minutes, following by 30 minute intervals until fluorescence signal plateaued and equilibrium achieved.

RHCC-NT [2] = molecular target: T1, RHCC-NT; assay: Fluorescence binding assay (steady-state titration of PAH with RHCC-NT); conditions: for ∆G, molar Gibbs free energy for the ligand binding: ∆G = RT ln (Kd); for Fluorescence intensity at 350 nm (λexc = 275 nm): 4 µM naphthalene; for binding to RHCC-NT / concentration dependent fluorescence changes: result in words
Experimental: Fluorescence assays were used to examine the binding of RHCC-NT to PAHs as they allow discrimination between PAHs in solution and those bound to the RHCC-NT, as well as the ability to monitor PAH uptake as a function of time (Fig. 2). […] In order to minimize contributions from tyrosine fluorescence, the fluorescence emission at 350 nm was used to determine the binding affinity of naphthalene to RHCC-NT (Table 1).
Initial binding screens were performed by titrating known amounts of a single PAH with varying amounts of RHCC-NT. All assays were performed in 20 mM sodium phosphate solution containing 1% ethanol buffered at pH 7 and adjusted to 150 mM ionic strength. All samples were prepared in triplicate to a final volume of 1 mL and were left to incubate overnight at 25 °C to ensure complete equilibration. PAH fluorescence was then measured as a function of RHCC-NT concentration. Steady-state fluorescence spectra were collected using Fluorolog-3 Horiba Jobin Yvon spectrofluorometer (Edison, NJ). Excitation wavelength was set to 275 nm for naphthalene, 300 nm for acenaphthene, 350 nm for anthracene, 334 nm for chrysene and pyrene, 290 nm for acenaphthylene and fluorene. Excitation and emission slits were set to 1 nm band pass resolution. All samples were measured at 20 °C in a 10 × 3 mm^2 quartz cuvette. The obtained fluorescence data was used to calculate the binding constant Kd assuming that each PAH binds to one of two equal bindings sites in the RHCC-NT, cavity 2 or 3. The fraction of PAH bound and the concentration of unbound RHCC-NT was determined based on the following equation:1 Fractionbound=y=F−F0/F∞−F0=Bmax[RHCCfree]/Kd+[RHCCfree] where F is the experimental fluorescence signal of each sample, F∞ is the fluorescence of the PAH at infinite protein concentration, F0 is the fluorescence of the free PAH in solution, Bmax is a constant and equal to 1. The y values thus obtained were plotted as a function of free RHCC concentrations. The plotted data were then fit to Equation (1) using Sigma Plot 13 (Point Richmond, CA), yielding the binding constant Kd for each PAH bound to RHCC-NT[27].

[3] = parameters: method as in PMID 26626387; conditions: in kJ/mol; cited from earlier work
RHCC-tetrabrachion = assay: GC-MS/MS uptake of PAHs; format: binding, Staphylothermus marinus; conditions: result in words

Row | Compound | time to reach equilibrium (RHCC-NT [1]) | Kd (RHCC-NT [2]) [µM] | ∆G, molar Gibbs free energy for the ligand binding (RHCC-NT [2]) [kcal/mol] | ΔGsolv, measured solvation free energy [3] | uptake by RHCC-tetrabrachion (RHCC-tetrabrachion) | binding to RHCC-NT / concentration dependent fluorescence changes (RHCC-NT [2]) | also measured
1 | c1cc2c3c(cccc3c1)CC2 [Acenaphthene, acenaphthene] | ca. 1 min | 8.9 ± 1.8 | -6.84 | – | – | – | –
2 | C1=Cc2cccc3cccc1c23 [Acenaphthylene, acenaphthylene] | ca. 1 min | 32 ± 7 | -6.09 | – | – | – | –
3 | c1ccc2cc3ccccc3cc2c1 [Anthracene, anthracene] | – | 8.7 ± 1.5 | -6.86 | – | – | – | –
4 | c1ccc2c(c1)ccc1c3ccccc3ccc21 [Chrysene, chrysene] | – | 27 ± 5.6 | -6.19 | – | – | – | –
5 | c1ccc2c(c1)Cc1ccccc1-2 [Fluorene, fluorene] | – | 5.4 ± 1.6 | -7.15 | – | – | – | –
6 | c1ccc2ccccc2c1 [Naphthalene, naphthalene] | ca. 1 min | 17 ± 1.4 | -6.48 | −10.0 ± 2.5 | – | – | Fluorescence intensity at 350 nm (λexc = 275 nm) (RHCC-NT [2]; [RHCC] 0 µM): 708292; Fluorescence intensity at 350 nm (λexc = 275 nm) (RHCC-NT [2]; [RHCC] 0.12 µM): 709824; Fluorescence intensity at 350 nm (λexc = 275 nm) (RHCC-NT [2]; [RHCC] 0.24 µM): 730572; Fluorescence intensity at 350 nm (λexc = 275 nm) (RHCC-NT [2]; [RHCC] 0.48 µM): 733694; Fluorescence intensity at 350 nm (λexc = 275 nm) (RHCC-NT [2]; [RHCC] 0.96 µM): 780644; Fluorescence intensity at 350 nm (λexc = 275 nm) (RHCC-NT [2]; [RHCC] 1.9 µM): 906120; Fluorescence intensity at 350 nm (λexc = 275 nm) (RHCC-NT [2]; [RHCC] 3.8 µM): 1003650; Fluorescence intensity at 350 nm (λexc = 275 nm) (RHCC-NT [2]; [RHCC] 7.7 µM): 1177910; Fluorescence intensity at 350 nm (λexc = 275 nm) (RHCC-NT [2]; [RHCC] 15.4 µM): 1420260; Fluorescence intensity at 350 nm (λexc = 275 nm) (RHCC-NT [2]; [RHCC] 30.75 µM): 1845910; Fluorescence intensity at 350 nm (λexc = 275 nm) (RHCC-NT [2]; [RHCC] 61.5 µM): 1873130
7 | c1cc2ccc3cccc4ccc(c1)c2c34 [Pyrene, pyrene] | – | 30 ± 2 | -6.12 | −18.91 ± 2.5 | – | – | average uptake rate (RHCC-NT [1]; 10 °C): 1.59 nmol/hr∙mol RHCC-NT; time for complete uptake by RHCC-NT (RHCC-NT [1]; 10 °C, emission at 384 nm): around 80 hrs; Py-value (ratio of fluorescence emission intensities of Band I/III) (RHCC-NT [1]; RHCC-NT:Pyrene time = 0, 10 °C): 1.7288; Py-value (ratio of fluorescence emission intensities of Band I/III) (RHCC-NT [1]; RHCC-NT:Pyrene time = 75 hrs, 10 °C): 0.6395
8 | c1ccc2cc3c(ccc4ccccc43)cc2c1 [benz(a)anthracene] | – | – | – | – | uptake | did not exhibit any concentration dependent fluorescence changes | –
9 | c1ccc2c(c1)-c1cccc3cccc-2c13 [fluoranthene] | – | – | – | – | uptake | did not exhibit any concentration dependent fluorescence changes | –
10 | c1ccc2c(c1)ccc1ccccc12 [phenanthrene] | – | – | – | −16.2 ± 2.5 | uptake | did not exhibit any concentration dependent fluorescence changes | –
